Results from patent US20180221306A1, “PHARMACEUTICAL COMPOSITIONS OF 5-HYDROXY-2-METHYLNAPHTHALENE-1,4-DIONE” (PellFiCure Pharmaceuticals, Inc., priority 2016, published 2018).
Converted amounts (≈) assume the structure as drawn.

Columns and labels:
[1] = Forced degradation: stability of Compound I formulations in selected solvents and Carrier A (HPLC)
PTEN-CaP2/H2B-GFP tumors = assay: IVM chamber model of castration resistant prostate cancer (CRPC), tumor size; type: in vivo, mouse
From the text: Mouse prostate cancer cells PTEN-CaP2 were initially derived from the PTEN-P2 cell line and are homozygous for PTEN deletion. Complete ablation of PTEN results in intrinsic androgen-independence in the PTEN-null model. Although PTEN-CaP2 tumors express AR, they are resistant to castration in the absence of prior exposure to ADT.

physchem = type: physicochemical; settings: for solubility thermodynamic: 25 °C, thermodynamic from solid
Protocol: The maximum quantity of Compound I that can be completely dissolved at 25° C. in the several aqueous buffers and other solvents was evaluated using HPLC. […] Samples were injected with a 250 μg/ml nominal concentration. For samples of unknown concentration, dilutions were made to target the linear range of the method. All samples were quantified based on a linear standard curve. Measurements were performed by Pharmatek Laboratories, Inc. (San Diego, Calif.) with industry-standard quality controls.

[2] = EtOH, 25° C./60% RH, t = 2 week

CC1=CC(=O)c2c(O)cccc2C1=O [Compound I, 5-hydroxy-2-methylnaphthalene-1,4-dione]
Solution Stability in Selected Solvents, Purity ([1]; EA (poor chromatography), 40° C./75% RH, t = 2 week): 77.13 % Area | Solution Stability in Selected Solvents, Purity ([1]; EtOH, 25° C./60% RH, t = 0): 99.37 % Area | Solution Stability in Selected Solvents, Purity ([1]; EtOH, 25° C./60% RH, t = 1 week): 96.08 % Area | Solution Stability in Selected Solvents, % Potency [1, 2]: 93.35% | Solution Stability in Selected Solvents, Purity [1, 2]: 92.82 % Area | Solution Stability in Selected Solvents, Purity ([1]; EtOH, 40° C./75% RH, t = 1 week): 91.99 % Area | Solution Stability in Selected Solvents, Purity ([1]; EtOH, 40° C./75% RH, t = 2 week): 89.39 % Area | Solution Stability in Selected Solvents, Purity ([1]; IPA, 25° C./60% RH, t = 0): 98.80 % Area | Solution Stability in Selected Solvents, Purity ([1]; IPA, 25° C./60% RH, t = 1 week): 95.62 % Area | Solution Stability in Selected Solvents, Purity ([1]; IPA, 25° C./60% RH, t = 2 week): 93.35 % Area | Solution Stability in Selected Solvents, Purity ([1]; IPA, 40° C./75% RH, t = 1 week): 91.10 % Area | Solution Stability in Selected Solvents, Purity ([1]; IPA, 40° C./75% RH, t = 2 week): 89.40 % Area | Solution Stability in Selected Solvents, Purity ([1]; MeOH, 25° C./60% RH, t = 0): 99.32 % Area | Solution Stability in Selected Solvents, Purity ([1]; MeOH, 25° C./60% RH, t = 1 week): 95.54 % Area | Solution Stability in Selected Solvents, Purity ([1]; MeOH, 25° C./60% RH, t = 2 week): 88.79 % Area | Solution Stability in Selected Solvents, Purity ([1]; MeOH, 40° C./75% RH, t = 1 week): 86.56 % Area | Solution Stability in Selected Solvents, Purity ([1]; MeOH, 40° C./75% RH, t = 2 week): 83.85 % Area | Solution Stability in Selected Solvents, Purity ([1]; PEG 300, 25° C./60% RH, t = 0): 98.52 % Area | Solution Stability in Selected Solvents, Purity ([1]; PEG 300, 25° C./60% RH, t = 1 week): 88.59 % Area | Solution Stability in Selected Solvents, Purity ([1]; PEG 300, 25° C./60% RH, t = 2 week): 80.73 % Area | Solution Stability in Selected Solvents, Purity ([1]; PEG 300, 40° C./75% RH, t = 1 week): 65.16 % Area | Solution Stability in Selected Solvents, Purity ([1]; PEG 300, 40° C./75% RH, t = 2 week): 49.31 % Area | Solution Stability in Selected Solvents, Purity ([1]; PEG 400, 25° C./60% RH, t = 0): 98.33 % Area | Solution Stability in Selected Solvents, Purity ([1]; PEG 400, 25° C./60% RH, t = 1 week): 88.42 % Area | Solution Stability in Selected Solvents, Purity ([1]; PEG 400, 25° C./60% RH, t = 2 week): 81.00 % Area | Solution Stability in Selected Solvents, Purity ([1]; PEG 400, 40° C./75% RH, t = 1 week): 70.08 % Area | Solution Stability in Selected Solvents, Purity ([1]; PEG 400, 40° C./75% RH, t = 2 week): 49.07 % Area | Solution Stability in Selected Solvents, Purity ([1]; PG, 25° C./60% RH, t = 0): 99.65 % Area | Solution Stability in Selected Solvents, Purity ([1]; PG, 25° C./60% RH, t = 1 week): 99.14 % Area | Solution Stability in Selected Solvents, Purity ([1]; PG, 25° C./60% RH, t = 2 week): 97.81 % Area | Solution Stability in Selected Solvents, Purity ([1]; PG, 40° C./75% RH, t = 1 week): 97.49 % Area | Solution Stability in Selected Solvents, Purity ([1]; PG, 40° C./75% RH, t = 2 week): 96.43 % Area | Solution Stability in Selected Solvents, Purity ([1]; THF, 25° C./60% RH, t = 0): 96.45 % Area | Solution Stability in Selected Solvents, Purity ([1]; THF, 25° C./60% RH, t = 1 week): 94.19 % Area | Solution Stability in Selected Solvents, Purity ([1]; THF, 25° C./60% RH, t = 2 week): 91.24 % Area | Solution Stability in Selected Solvents, Purity ([1]; THF, 40° C./75% RH, t = 1 week): 92.54 % Area | Solution Stability in Selected Solvents, % Potency ([1]; THF, 40° C./75% RH, t = 2 week): 99.82% | Solution Stability in Selected Solvents, Purity ([1]; THF, 40° C./75% RH, t = 2 week): 89.34 % Area | Compound I lost ([1]; Tween-20 or Tween-80 surfactant formulations): ≥ 50% | Tumor size relative to initial size (PTEN-CaP2/H2B-GFP tumors; combination of Compound I and castration): 157% | Tumor size relative to initial size (PTEN-CaP2/H2B-GFP tumors; oral formulation of Compound I alone (680% castrated, 656% untreated)): 293% | Effectiveness of combination with castration vs Compound I alone (PTEN-CaP2/H2B-GFP tumors; p=0.048): twice as effective | Solubility in Carrier A (physchem): well soluble | Solubility in aqueous media (physchem): mostly insoluble | Solubility in mixtures of triacylglycerols (physchem): good solubility | Solubility in organic solvents (physchem): good solubility | solubility thermodynamic (physchem; pH 1, aqueous buffer): 48 µg/mL (≈ 255 µM) | solubility thermodynamic (physchem; pH 2, aqueous buffer): 45 µg/mL (≈ 239 µM) | solubility thermodynamic (physchem; pH 3, aqueous buffer): 49 µg/mL (≈ 260 µM) | solubility thermodynamic (physchem; pH 4, aqueous buffer): 16 µg/mL (≈ 85 µM) | solubility thermodynamic (physchem; pH 5, aqueous buffer): 46 µg/mL (≈ 244 µM) | solubility thermodynamic (physchem; pH 6, aqueous buffer): 44 µg/mL (≈ 234 µM) | solubility thermodynamic (physchem; pH 7, aqueous buffer): 49 µg/mL (≈ 260 µM) | solubility thermodynamic (physchem; pH 8, aqueous buffer): 43 µg/mL (≈ 229 µM) | solubility thermodynamic (physchem; pH 9, aqueous buffer): 75 µg/mL (≈ 399 µM) | solubility thermodynamic (physchem; pH 10, aqueous buffer): 240 µg/mL (≈ 1280 µM) | solubility thermodynamic (physchem; water): 72 µg/mL (≈ 383 µM)
